Test results from patent US20230083973A1, “SUBSTITUTED CYCLOPROPYL-2,2'-BIP[…], ANALOGUES THEREOF, AND METHODS USING SAME” (priority 2019, published 2023).
Like-named read-outs stand apart in the source and are kept apart here.

Tested on: HBsAg
Experiment: HBsAg assay: inhibition of HBsAg in HepG2.2.15 cells (chemiluminescence immunoassay of supernatant)
Assay type: cell-based, hepatitis B virus
Conditions: HBsAg in supernatant at day 6 after exposure to compound, 0.5% DMSO
Description: Inhibition of HBsAg was determined in HepG2.2.15 cells. Cells were maintained in culture medium containing 10% fetal calf serum, […], Glutamine, penicillin/streptomycin. Cells were seeded in 96-well collagen-coated plate at a density of 30,000 cells/well. Serially diluted compounds were added to cells next day at the final DMSO concentration of 0.5%. Cells were incubated with compounds for 2-3 days, after which medium was removed. Fresh medium containing compounds was added to cells for additional 3-4 days. At day 6 after exposure of compounds, supernatant was collected, the HBsAg immunoassay (microplate-based chemiluminescence immunoassay kits, CLIA, Autobio Diagnosics Co., Zhengzhou, China, Catalog # CL0310-2) was used to determine the level of HBsAg according to manufactory instruction. Dose-response curves were generated and the EC50 value (effective concentrations that achieved 50% inhibitory effect) were determined using XLfit software. In addition, cells were seeded at a density of 5,000 cells/well for determination of cell viability in the presence and absence of compounds by using CellTiter-Glo reagent (Promega).
Table 1 illustrates EC50 values obtained by the HBsAg assay for selected compounds.

[1] = Hepatitis B virus, HepG2.2.15, 144 h, read-out: sAg EC50, HepG2.2.15 cells
[2] = read-out: sAg EC50, HepG2.2.15 cells

Compound	EC50 [1] [nM]	EC50 [2] [nM]
OCc1cnn(-c2cc([C@@H]3C[C@H]3c3cnc(-c4ncccn4)nc3)cc(F)c2F)c1 (relative stereo) [Example 234, trans-(1-(5-(2-([2,2′-Bipyrimidin]-5-yl)cyclopropyl)-2,3-difluorophenyl)-1H-pyrazol-4-yl)methanol]	140	–
Fc1ccc(C2CC2c2cnc(-c3ncccn3)nc2)cc1N1CCC1 (single isomer, unassigned) [Example 83, trans-5-(2-(3-(Azetidin-1-yl)-4-fluorophenyl)cyclopropyl)-2,2′-bipyrimidine]	–	35
COCCCn1ncc2c([C@@H]3C[C@H]3c3cnc(-c4ncccn4)nc3)ccc(F)c21 (relative stereo) [Example 276, trans-4-(2-([2,2′-Bipyrimidin]-5-yl)cyclopropyl)-7-fluoro-1-(3-methoxypropyl)-1H-indazole]	10	–
COc1c(Cl)ccc(C2CC2c2cnc(-c3ncccn3)nc2)c1OC (single isomer, unassigned) [Example 114, trans-5-(2-(4-Chloro-2,3-dimethoxyphenyl)cyclopropyl)-2,2′-bipyrimidine]	–	3000
COc1cc(C2CC2c2cnc(-c3ncccn3)nc2)cc(OC)c1Cl (single isomer, unassigned) [Example 99, trans-5-(2-(4-Chloro-3,5-dimethoxyphenyl)cyclopropyl)-2,2′-bipyrimidine]	–	3000
Fc1ccc(C2CC2c2cnc(-c3ncccn3)nc2)cc1OC(F)(F)F (single isomer, unassigned) [Example 40, trans-5-(2-(4-Fluoro-3-(trifluoromethoxy)phenyl)cyclopropyl)-2,2′-bipyrimidine]	–	110
COc1cc(C2CC2c2cnc(-c3ncccn3)nc2-c2ccccc2)ccc1F (single isomer, unassigned) [Example 143, trans-5-(2-(4-Fluoro-3-methoxyphenyl)cyclopropyl)-4-phenyl-2,2′-bipyrimidine]	–	120
COc1cc(C2CC2c2cnc(-c3ncccn3)nc2)c(Cl)cc1Cl (single isomer, unassigned) [Example 89, trans-5-(2-(2,4-Dichloro-5-methoxyphenyl)cyclopropyl)-2,2′-bipyrimidine]	–	610
COc1cc(F)cc(C2CC2c2cnc(-c3ncccn3)nc2)c1 (single isomer, unassigned) [Example 113, trans-5-(2-(3-Fluoro-5-methoxyphenyl)cyclopropyl)-2,2′-bipyrimidine]	–	26
COc1cc(C2CC2c2ccc(-c3ncccn3)nc2)cc(F)c1F (single isomer, unassigned) [Example 125, trans-2-(5-(2-(3,4-Difluoro-5-methoxyphenyl)cyclopropyl)pyridin-2-yl)pyrimidine]	–	4
COCCCn1cc2c(F)cc(C3CC3c3cnc(-c4ncccn4)nc3)cc2n1 (single isomer, unassigned) [Example 268, trans-6-(2-([2,2′-Bipyrimidin]-5-yl)cyclopropyl)-4-fluoro-2-(3-methoxypropyl)-2H-indazole]	–	10
COC1CN(c2cc(C3CC3c3cnc(-c4ncccn4)nc3)ccc2F)C1 (single isomer, unassigned) [Example 48, trans-5-(2-(4-Fluoro-3-(3-methoxyazetidin-1-yl)phenyl)cyclopropyl)-2,2′-bipyrimidine]	–	32
COc1cc([C@@H]2C[C@H]2c2cnc(-c3ncccn3)nc2)cc(C(F)(F)F)c1 (relative stereo) [Example 163, trans-5-(2-(3-Methoxy-5-(trifluoromethyl)phenyl)cyclopropyl)-2,2′-bipyrimidine]	140	–
COc1cc(C2CC2c2cnc(-c3ncccn3)nc2C)ccc1F (single isomer, unassigned) [Example 18, trans-5-(2-(4-Fluoro-3-methoxyphenyl)cyclopropyl)-4-methyl-2,2′-bipyrimidine]	–	890
COCCOc1cc(C2CC2c2cnc(-c3ncccn3)nc2)ccc1F (single isomer, unassigned) [Example 22, trans-5-(2-(4-Fluoro-3-(2-methoxyethoxy)phenyl)cyclopropyl)-2,2′-bipyrimidine]	–	59
COCCOc1ccc(C2CC2c2cnc(-c3ncccn3)nc2)cc1F (single isomer, unassigned) [Example 24, trans-5-(2-(3-Fluoro-4-(2-methoxyethoxy)phenyl)cyclopropyl)-2,2′-bipyrimidine]	–	150
COc1cc([C@@H]2C[C@H]2c2cnc(-c3ccncn3)nc2)cc(F)c1F (relative stereo) [Example 177, trans-5-(2-(3,4-Difluoro-5-methoxyphenyl)cyclopropyl)-2,4′-bipyrimidine]	360	–

Compound	EC50 [1] [nM]	EC50 [2] [nM]
COc1cc(C2CC2c2cnc(-c3ncccn3)nc2)cc(Cl)c1F (single isomer, unassigned) [Example 149, trans-5-(2-(3-Chloro-4-fluoro-5-methoxyphenyl)cyclopropyl)-2,2′-bipyrimidine]	–	62
COC1CN(c2cc(C3CC3c3cnc(-c4ncccn4)nc3)ccc2F)C1 (single isomer, unassigned) [Example 47, trans-5-(2-(4-Fluoro-3-(3-methoxyazetidin-1-yl)phenyl)cyclopropyl)-2,2′-bipyrimidine]	–	370
Fc1cc(C2CC2c2cnc(-c3ncccn3)nc2)cc(N2CC3(CCOCC3)C2)c1F (single isomer, unassigned) [Example 137, trans-2-(5-(2-([2,2′-Bipyrimidin]-5-yl)cyclopropyl)-2,3-difluorophenyl)-7-oxa-2-azaspiro[3.5]nonane]	–	74
COCCCOc1cc(C2CC2c2cnc(-c3ncccn3)nc2)cc(F)c1F (single isomer, unassigned) [Example 130, trans-5-(2-(3,4-Difluoro-5-(3-methoxypropoxy)phenyl)cyclopropyl)-2,2′-bipyrimidine]	–	260
c1cnc(-c2ncc([C@@H]3C[C@H]3c3cnc4ccccn34)cn2)nc1 (relative stereo) [Example 170, trans-3-(2-([2,2′-Bipyrimidin]-5-yl)cyclopropyl)imidazo[1,2-a]pyridine]	1000	–
Fc1cc(C2CC2c2cnc(-c3ncccn3)nc2)cc(OCC2CC2)c1F (single isomer, unassigned) [Example 129, trans-5-(2-(3-(Cyclopropylmethoxy)-4,5-difluorophenyl)cyclopropyl)-2,2′-bipyrimidine]	–	18
CC(C)OC1CN(c2cc([C@@H]3C[C@H]3c3cnc(-c4ncccn4)nc3)cc(F)c2F)C1 (relative stereo) [Example 210, trans-5-(2-(3,4-Difluoro-5-(3-isopropoxyazetidin-1-yl)phenyl)cyclopropyl)-2,2′-bipyrimidine]	55	–
Fc1cc([C@@H]2C[C@H]2c2cnc(-c3ncccn3)nc2)cc(OC2CC3(COC3)C2)c1F (relative stereo) [Example 243, trans-5-(2-(3-((2-Oxaspiro[3.3]heptan-6-yl)oxy)-4,5-difluorophenyl)cyclopropyl)-2,2′-bipyrimidine]	110	–
Fc1c(Cl)cc(C2CC2c2cnc(-c3ncccn3)nc2)cc1N1CCCC1 (single isomer, unassigned) [Example 108, trans-5-(2-(3-Chloro-4-fluoro-5-(pyrrolidin-1-yl)phenyl)cyclopropyl)-2,2′-bipyrimidine]	–	78
CC1(C)CN(c2cc(C3CC3c3cnc(-c4ncccn4)nc3)cc(F)c2F)C1 (single isomer, unassigned) [Example 139, trans-5-(2-(3-(3,3-Dimethylazetidin-1-yl)-4,5-difluorophenyl)cyclopropyl)-2,2′-bipyrimidine]	–	88
O[C@@H]1CCN(c2cc(C3CC3c3cnc(-c4ncccn4)nc3)cc(Cl)c2F)C1 (single isomer, unassigned) [Example 127]	–	110
Fc1cc([C@@H]2C[C@H]2c2cnc(-c3ncccn3)nc2)cc(-n2cccn2)c1F (single isomer, unassigned) [Example 254, trans-5-(2-(3,4-Difluoro-5-(1H-pyrazol-1-yl)phenyl)cyclopropyl)-2,2′-bipyrimidine]	–	47
COc1cc(C2CC2c2cnc(-c3ncccn3)nc2N2CCCCC2)ccc1F (single isomer, unassigned) [Example 144, trans-5-(2-(4-Fluoro-3-methoxyphenyl)cyclopropyl)-4-(piperidin-1-yl)-2,2′-bipyrimidine]	–	25000
COc1cc([C@@H]2C[C@H]2c2cnc(-c3ccccn3)nc2)cc(OC)c1F (relative stereo) [Example 175, trans-5-(2-(4-Fluoro-3,5-dimethoxyphenyl)cyclopropyl)-2-(pyridin-2-yl)pyrimidine]	350	–
Fc1ccc([C@@H]2C[C@H]2c2cnc(-c3ncccn3)nc2)c2cccnc12 (relative stereo) [Example 172, trans-5-(2-([2,2′-Bipyrimidin]-5-yl)cyclopropyl)-8-fluoroquinoline]	250	–
CN1CC[C@H](Nc2cc(C3CC3c3cnc(-c4ncccn4)nc3)cc(F)c2F)C1 (single isomer, unassigned) [Example 229]	–	3000
Fc1ccc(C2CC2c2cnc(-c3ncccn3)nc2)cc1F (single isomer, unassigned) [Example 14, trans-5-(2-(3,4-Difluorophenyl)cyclopropyl)-2,2′-bipyrimidine]	–	1000
